Assays:
Assay in all cases: relative viability (nuclei count vs DMSO), 5 days (fraction); higher = more cells survive
XMD14-99 + Bortezomib = compound: CN1CCN(CC1)C2=CC(=C(C=C2)NC3=NC(=C(S3)C(=O)C4=C(C=CC=C4Cl)Cl)N)OC [XMD14-99] + CC(C)C[C@H](NC(=O)[C@H](Cc1ccccc1)NC(=O)c1cnccn1)B(O)O [Bortezomib] (partner 0.002 µM)
Procedure, shortened: (§1)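 For relative viability, nuclei counts in treated wells were divided by those in vehicle wells. Lung cancer cell lines had been pin-tool dosed in 1536-well plates the day after seeding and cultured for 5 days, then fixed and stained in one step (final 0.05% Triton X-100, 1% formaldehyde, 1 ug/ml Hoechst) and imaged at 4×. Doses were one drug alone or a fixed anchor-drug dose plus five library-drug doses (not always all listed) in √10 steps, and values are duplicate-plate medians.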

AZD1208 + Dasatinib = compound: N[C@@H]1CCCN(c2c(/C=C3\SC(=O)NC3=O)cccc2-c2ccccc2)C1 [AZD1208] + Cc1nc(Nc2ncc(C(=O)Nc3c(C)cccc3Cl)s2)cc(N2CCN(CCO)CC2)n1 [Dasatinib] (partner 0.075 µM)
Procedure, shortened: as §1

XMD14-99 + Decitabine = compound: CN1CCN(CC1)C2=CC(=C(C=C2)NC3=NC(=C(S3)C(=O)C4=C(C=CC=C4Cl)Cl)N)OC [XMD14-99] + Nc1ncn([C@H]2C[C@H](O)[C@@H](CO)O2)c(=O)n1 [Decitabine] (partner 2 µM)
Procedure, shortened: as §1

AZD1208 + Luminespib = compound: N[C@@H]1CCCN(c2c(/C=C3\SC(=O)NC3=O)cccc2-c2ccccc2)C1 [AZD1208] + CCNC(=O)c1noc(-c2cc(C(C)C)c(O)cc2O)c1-c1ccc(CN2CCOCC2)cc1 [Luminespib] (partner 0.01 µM)
Procedure, shortened: as §1

| Cell Line | relative viability (XMD14-99 + Bortezomib; first compound 0.08 µM) | relative viability (XMD14-99 + Bortezomib; first compound 0.8 µM) | relative viability (XMD14-99 + Bortezomib; first compound 2.53 µM) | relative viability (XMD14-99 + Bortezomib; first compound 8 µM) | relative viability (AZD1208 + Dasatinib; first compound 0.08 µM) | relative viability (AZD1208 + Dasatinib; first compound 0.253 µM) | relative viability (AZD1208 + Dasatinib; first compound 0.8 µM) | relative viability (AZD1208 + Dasatinib; first compound 2.53 µM) | relative viability (AZD1208 + Dasatinib; first compound 8 µM) | relative viability (XMD14-99 + Decitabine; first compound 0.08 µM) | relative viability (XMD14-99 + Decitabine; first compound 0.8 µM) | relative viability (XMD14-99 + Decitabine; first compound 2.53 µM) | relative viability (XMD14-99 + Decitabine; first compound 8 µM) | relative viability (AZD1208 + Luminespib; first compound 0.08 µM) | relative viability (AZD1208 + Luminespib; first compound 0.253 µM) | relative viability (AZD1208 + Luminespib; first compound 0.8 µM) | relative viability (AZD1208 + Luminespib; first compound 2.53 µM) | relative viability (AZD1208 + Luminespib; first compound 8 µM) |
| --- | --- | --- | --- | --- | --- | --- | --- | --- | --- | --- | --- | --- | --- | --- | --- | --- | --- | --- |
| 201T | 1.11 | 1.08 | 1.03 | 1.03 | 0.579 | 0.557 | 0.522 | 0.504 | 0.51 | 0.852 | 0.833 | 0.833 | 0.741 | 1.07 | 1.02 | 0.961 | 1.12 | 0.98 |
| A549 |  |  |  |  |  |  |  |  |  | 0.284 | 0.271 | 0.203 | 0.229 |  |  |  |  |  |
| A-427 | 0.933 | 0.924 | 0.77 | 0.829 | 0.553 | 0.644 | 0.531 | 0.659 | 0.431 | 0.537 | 0.545 | 0.541 | 0.521 | 0.788 | 1 | 0.829 | 0.762 | 0.712 |
| ABC-1 | 0.296 | 0.343 | 0.346 | 0.281 | 0.667 | 0.509 | 0.522 | 0.69 | 0.563 | 1.1 | 1.05 | 0.679 | 0.935 | 0.564 | 0.632 | 0.415 | 0.383 | 0.632 |
| BEN | 0.88 | 0.901 | 0.924 | 0.531 | 0.334 | 0.243 | 0.285 | 0.299 | 0.314 | 0.853 | 0.701 | 0.707 | 0.558 | 0.254 | 0.271 | 0.285 | 0.244 | 0.303 |
| CAL-12T | 1.07 | 0.954 | 0.899 | 0.634 | 0.316 | 0.393 | 0.329 | 0.48 | 0.464 |  |  |  |  | 0.363 | 0.527 | 0.185 | 0.434 | 0.258 |
| COR-L23 | 1 | 0.816 | 0.86 | 0.576 | 0.471 | 0.508 | 0.479 | 0.452 | 0.523 | 0.467 | 0.428 | 0.41 | 0.382 | 0.585 | 0.749 | 0.529 | 0.721 | 0.508 |
| COR-L 105 | 0.841 | 0.805 | 0.614 | 0.473 | 0.34 | 0.34 | 0.308 |  | 0.356 | 0.718 | 0.651 | 0.606 | 0.604 | 0.728 | 0.781 | 0.826 |  | 0.855 |
| Calu-6 | 0.944 | 0.875 | 0.85 | 0.598 |  |  |  |  |  |  |  |  |  |  |  |  |  |  |
| ChaGo-K-1 | 1.06 | 1.02 | 0.964 | 0.92 | 0.657 | 0.624 | 0.518 | 0.539 | 0.514 | 0.52 | 0.531 | 0.5 | 0.481 | 0.676 | 0.655 | 0.596 | 0.528 | 0.392 |
| EBC-1 | 0.57 | 0.503 | 0.384 | 0.285 |  |  |  |  |  |  |  |  |  |  |  |  |  |  |
| EKVX | 0.965 | 0.998 | 0.983 | 0.736 | 0.637 | 0.245 | 0.51 | 0.498 | 0.48 | 0.274 | 0.322 | 0.316 | 0.239 | 0.981 | 0.845 | 0.888 | 0.804 | 0.924 |
| EMC-BAC-2 | 0.989 | 1.08 | 0.995 | 0.923 | 0.301 | 0.319 | 0.321 | 0.32 | 0.264 | 0.973 | 0.898 | 0.838 | 0.802 | 1.12 | 1.2 | 1.13 | 1.11 | 0.812 |
| EPLC-272H | 0.886 | 1.01 | 0.904 | 0.912 | 0.3 | 0.363 | 0.286 | 0.305 | 0.252 | 0.386 | 0.41 | 0.353 | 0.314 | 0.276 | 0.557 | 0.288 | 0.219 | 0.215 |
| H3255 | 0.729 | 0.895 | 0.532 | 0.297 | 0.438 | 0.413 | 0.362 | 0.385 | 0.43 | 0.584 | 0.674 | 0.546 | 0.513 | 0.872 | 0.982 | 0.698 | 0.901 | 0.842 |
| HARA | 1.15 | 1.14 | 0.922 | 0.867 | 0.284 | 0.273 | 0.236 | 0.261 | 0.284 | 0.565 | 0.505 | 0.537 | 0.403 | 0.558 | 1.1 | 0.0617 | 0.81 | 0.777 |
| HCC-15 | 1.04 | 0.999 | 0.896 | 0.769 | 0.57 | 0.487 | 0.489 | 0.492 | 0.368 | 0.668 | 0.605 | 0.599 | 0.415 | 0.359 | 0.235 | 0.319 | 0.431 | 0.192 |
| HCC-44 | 0.882 | 0.823 | 0.933 | 0.806 |  |  |  |  |  | 1.01 | 0.902 | 0.898 | 0.911 | 0.996 | 1.1 | 0.963 | 1.04 | 1.04 |
| HCC-78 | 0.443 | 0.482 | 0.461 | 0.47 | 0.421 | 0.439 | 0.328 | 0.35 | 0.34 | 0.709 | 0.646 | 0.822 | 0.47 |  |  |  |  |  |
| HCC-366 | 1.04 | 1.05 | 1.03 | 0.884 | 0.625 | 0.64 | 0.479 | 0.493 | 0.287 | 0.32 | 0.363 | 0.347 | 0.291 |  |  |  |  |  |
| HCC-827 | 1.12 | 0.994 | 0.976 | 0.802 | 0.286 | 0.297 | 0.263 | 0.255 | 0.247 | 0.354 | 0.273 | 0.296 | 0.306 | 0.735 | 0.677 | 0.307 | 0.373 | 0.408 |

From the supplement of paper PMC10307832
